From paper PMC3761409 (Journal of molecular recognition : JMR, 2013)
No end group written: not given here.

Experiments:
[1] = biological target: T1, Human Bcl2 (residues 1-205) (Homo sapiens, UniProt P10415); experiment: ITC: effect of NaCl concentration on binding; settings: Sodium phosphate buffer, NaCl 0-500mM, 25°C, pH 7
[2] = biological target: T1, Human Bcl2 (residues 1-205); experiment: Isothermal titration calorimetry; type: binding; settings: for Kd: SD
BclXL = BclXL (Homo sapiens, UniProt Q07817); experiment: In vitro binding of full-length Bad to BclXL; settings: unpublished observations
Bcl2 = Bcl2 (Homo sapiens, UniProt P10415); experiment: In vitro binding of full-length Bad to Bcl2; settings: unpublished observations
Bcl2, sequence (P10415 whole entry): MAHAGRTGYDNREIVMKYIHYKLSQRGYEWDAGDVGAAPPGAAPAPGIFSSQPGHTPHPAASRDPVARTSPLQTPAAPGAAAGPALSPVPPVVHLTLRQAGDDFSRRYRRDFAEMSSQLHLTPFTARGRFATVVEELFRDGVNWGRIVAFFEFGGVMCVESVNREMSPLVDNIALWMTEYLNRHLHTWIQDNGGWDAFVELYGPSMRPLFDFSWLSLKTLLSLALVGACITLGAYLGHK

T1 sequence (P10415 1-205): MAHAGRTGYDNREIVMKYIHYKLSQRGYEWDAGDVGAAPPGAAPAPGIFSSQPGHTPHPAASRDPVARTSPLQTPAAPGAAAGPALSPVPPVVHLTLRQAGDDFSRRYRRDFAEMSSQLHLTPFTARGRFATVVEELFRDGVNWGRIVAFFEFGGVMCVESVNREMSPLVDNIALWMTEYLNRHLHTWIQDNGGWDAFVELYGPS
BclXL, sequence (Q07817 whole entry, species assumed): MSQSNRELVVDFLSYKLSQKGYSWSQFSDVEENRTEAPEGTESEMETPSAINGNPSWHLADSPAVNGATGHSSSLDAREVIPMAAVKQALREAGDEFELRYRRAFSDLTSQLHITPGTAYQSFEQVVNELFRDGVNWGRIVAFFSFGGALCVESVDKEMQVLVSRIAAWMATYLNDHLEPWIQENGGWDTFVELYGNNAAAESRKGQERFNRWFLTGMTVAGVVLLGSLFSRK

CC[C@H](C)[C@H](NC(=O)[C@H](C)NC(=O)[C@H](CC(C)C)NC(=O)[C@H](CCC(N)=O)NC(=O)[C@H](CCCNC(=N)N)NC(=O)CNC(=O)[C@@H](NC(=O)[C@H](CCC(N)=O)NC(=O)CNC(=O)[C@H](CCSC)NC(=O)[C@@H](NC(=O)[C@@H](N)CO)[C@@H](C)O)C(C)C)C(=O)N[C@H](C(=O)NCC(=O)N[C@@H](CC(=O)O)C(=O)N[C@@H](CC(=O)O)C(=O)N[C@H](C(=O)N[C@@H](CC(N)=O)C(=O)N[C@@H](CCCNC(=N)N)C(=O)N[C@@H](CCCNC(=N)N)C(=O)O)[C@@H](C)CC)[C@@H](C)CC [Bak]
effect of increasing NaCl concentration on the binding (Kd) to Bcl2 [1]: largely independent of salt concentration
Kd [2]: 1300 ± 250 nM

CC(C)C[C@H](NC(=O)[C@H](C)NC(=O)[C@H](CCCCN)NC(=O)[C@H](CC(C)C)NC(=O)[C@H](CCCNC(=N)N)NC(=O)[C@H](C)NC(=O)[C@H](C)NC(=O)[C@@H](NC(=O)[C@H](CC(C)C)NC(=O)[C@H](CCC(N)=O)NC(=O)[C@H](C)NC(=O)[C@H](C)NC(=O)[C@@H](N)CO)[C@@H](C)O)C(=O)NCC(=O)N[C@@H](CC(=O)O)C(=O)N[C@@H](CCC(=O)O)C(=O)N[C@@H](CC(C)C)C(=O)N[C@@H](Cc1c[nH]cn1)C(=O)N[C@@H](CCC(N)=O)C(=O)N[C@@H](CCCNC(=N)N)C(=O)O [Hrk]
effect of increasing NaCl concentration on the binding (Kd) to Bcl2 [1]: enhancement of between two-to-five folds
Kd [2]: 25000 ± 8800 nM

ASTKKLSESLKRIGDELDSN [Bax]
effect of increasing NaCl concentration on the binding (Kd) to Bcl2 [1]: enhancement of between two-to-five folds
Kd [2]: 3100 ± 660 nM

DIIRNIARHLAQVGDSMDRS [Bid]
effect of increasing NaCl concentration on the binding (Kd) to Bcl2 [1]: largely independent of salt concentration
Kd [2]: 2100 ± 410 nM

EGSDALALRLACIGDEMDVS [Bik]
effect of increasing NaCl concentration on the binding (Kd) to Bcl2 [1]: enhancement of between two-to-five folds
Kd [2]: 3780 ± 790 nM

ELEVECATQLRRFGDKLNFR [Noxa]
binding to Bcl2 under varied conditions ([2]; ITC, temperature, buffer or solution pH varied): did not observe the binding

QAEVQIARKLQCIADQFHRL [Bmf]
effect of increasing NaCl concentration on the binding (Kd) to Bcl2 [1]: little or negligible effect
Kd [2]: 300 ± 70 nM

QWAREIGAQLRRMADDLNAQ [Puma]
effect of increasing NaCl concentration on the binding (Kd) to Bcl2 [1]: little or negligible effect
Kd [2]: 370 ± 70 nM

QWAREIGAQLRRMGDDLNAQ [Puma_A+4G]
Kd [2]: 2120 ± 420 nM

SAAQLTAARLKALADELHQR [Hrk_G+4A]
Kd [2]: 3840 ± 710 nM

WAAQRYGRELRRMSDEFVDS [Bad]
effect of increasing NaCl concentration on the binding (Kd) to Bcl2 [1]: enhancement of between two-to-five folds
Kd [2]: 4140 ± 800 nM

B1: full-length Bad: full-length Bad protein (Bcl2-associated death promoter) (protein, UniProt Q92934 1-168, looked up)
chain: MFQIPEFEPSEQEDSSSAERGLGPSPAGDGPSGSGKHHRQAPGLLWDASHQQEQPTSSSHHGGAGAVEIRSRHSSYPAGTEDDEGMGEEPSPFRGRSRSAPPNLWAAQRYGRELRRMSDEFVDSFKKGLPRPKSAGTATQMRQSSSWTRVFQSWWDRNLGRGSSAPSQ
modifications: full-length
affinity of the full-length protein toward BclXL (BclXL): poor affinity
affinity of the full-length protein toward Bcl2 (Bcl2): poor affinity
